Assay results as given in patent publication US9206165B2, “Tetrazolo hydrazine derivatives and pharmaceutical composition comprising same as active ingredient for preventing or treating cancer” (INDUSTRY-ACADEMIC COOPERATION FOUNDATION, YEUNGNAM …, priority 2012, dated 2015).

Legend:
[1] = tested on: MCF-7, MDA-Mb-231 and Zr-75 cell lines; experiment: In vitro anti-cancer activity in human breast cancer cell lines, MTT (statements pooled over the three lines); type: cell-based; settings: 1×10^−5, 1×10^−6 and 1×10^−7 M, 48 h
Method: (§1) Anti-cancer activities of the compounds f1-f15 on human breast cancer cell line were tested in ER positive (MCF-7) and […] cell lines. The human breast cancer cell lines MCF-7 and MDA-MB-231 were cultured in Dulbecco's Modified Eagle's Medium (DMEM) supplemented with 10% fetal bovine serum (FBS) (HyClone Laboratories, Logan, Utah, USA) and 1% penicillin: streptomycin (Invitrogen, Carlsbad, Calif., USA) in 12 well plates. The test compounds f1-f15 were dissolved in DMSO and one microliter of the stock solution was used per milliliter of the culture to make a working concentration1 1×10^−5, 1×10^−6 and 1×10^−7 M. Each test includes control wells. The cell suspension was diluted to 1×10^4 cells/mL by adding fresh medium, and 1 mL of this suspension was added to the test and control wells. The plates were incubated at 37° C. under CO2 for 24 h. After incubation, the culture media was changed and cells were treated with […] of stock solution. Cells were incubated at 37° C. under CO2 for 48 h. The growth of the cells was checked with a low power microscope and MTT assay was used to confirm the viability. In the similar experiments, the ZR-75 cells were grown in RPMI 1640 (HyClone Laboratories, Logan, Utah, USA) supplemented with 10% fetal bovine serum (FBS) (HyClone Laboratories, Logan, Utah, USA) and 1% penicillin: streptomycin (Invitrogen, Carlsbad, Calif., USA).
(§2) The results for each compound are reported as percent growth (GP %) of treated cells compared to untreated controls. The inhibitory effects were detectable in compounds 2, 8, 10, 12 and 14 among the compounds f1-f15. […] The percent growth inhibition of compounds varied not only with the substituent groups but also with the nature of the cell line.

MCF-7 cells = experiment: In vitro anti-cancer activity, MTT, MCF-7; type: cell-based, human; settings: ER positive MCF-7; FIG. 2
Method: as §1, §2

[2] = tested on: breast cancer marker genes in MCF-7 cells; experiment: Gene expression analysis by real time RT-PCR in MCF-7 cells; type: cell-based, human; settings: mRNA
Method: (§3) To investigate the various effects of various cell lines, the expression levels of different breast cancer marker genes were tested after treating the compounds.
(§4) Total RNA was extracted from the cells using Trizol™ reagent, stored in diethylpyrocarbonate-treated water at −80° C. until use. Total 2 μg of RNA was used for cDNA synthesis. All the primer used in examples of the present invention were designed with Primer 3 software (http://frodo.wi.mit.edu) using sequence information listed at NCBI. Following conditions were applied for the RT-PCR: pre-denaturation of the synthesized cDNA at 95° C. for 10 min followed by 40 cycles of denaturation at 95° C. for 33 s, annealing at each gene-specific primer Tm (° C.), and extension at 72° C. for 33 s. 1.2% of the agarose gel electrophoresis were used to verify the purity of the amplified genes.

[3] = tested on: breast cancer marker genes in MDA-MB-231 cells; experiment: Gene expression analysis by real time RT-PCR in MDA-MB-231 cells; type: cell-based, human; settings: mRNA
Method: as §3, §4

MDA-MB-231 cell line = experiment: In vitro anti-cancer activity, MTT, MDA-MB-231; type: cell-based, human; settings: ER negative MDA-MB-231; FIG. 2
Method: as §1, with “In the similar experiments, the ZR-75 cells were grown in RPMI 1640 (HyClone Laboratories, Logan, Utah, USA) supplemented with 10% fetal bovine serum (FBS) (HyClone Laboratories, Logan, Utah, USA) and 1% penicillin: streptomycin (Invitrogen, Carlsbad, Calif., USA).” left out

ZR-75 cell line = experiment: In vitro anti-cancer activity, MTT, ZR-75; type: cell-based, human; settings: ER negative ZR-75; FIG. 2
Method: as §1, with “In the similar experiments, the ZR-75 cells were grown in RPMI 1640 (HyClone Laboratories, Logan, Utah, USA) supplemented with 10% fetal bovine serum (FBS) (HyClone Laboratories, Logan, Utah, USA) and 1% penicillin: streptomycin (Invitrogen, Carlsbad, Calif., USA).” left out

Structure (SMILES) | melting point | anti-proliferative activity / inhibitory effects ([1]; FIG. 2) | expression of BAX ([2]; FIG. 3) | expression of CD44 ([2]; FIG. 3) | expression of BRAC-1 ([3]; FIG. 4) | further results
CCc1ccc(C=NNC(=O)Cn2nnnc2-c2ccc3c(c2)OCO3)cc1 [f11, 2-[5-(1,3-benzodioxol-5-yl)-1H-tetrazol-1-yl]-N′-[(4-ethylphenyl)methylidene]acetohydrazide] | 200 to 202 °C |  |  |  |  | 
O=C(Cn1nnnc1-c1ccc2c(c1)OCO2)N/N=C/c1ccc([N+](=O)[O-])cc1 [f14, 2-[5-(1,3-benzodioxol-5-yl)-1H-tetrazol-1-yl]-N′-[(E)-(4-nitrophenyl)methylidene]acetohydrazide] | 204 to 206 °C | excellent anti-proliferative activity | increased more than two fold | increased | a minimum of two folds decrease | anti-proliferative activity / inhibitory effects ([1]; FIG. 2, listed as 14): detectable; anti-proliferative effects on MCF-7 cells growth (MCF-7 cells): more anti-proliferative effects
COc1ccc(C=NNC(=O)Cn2nnnc2-c2ccc3c(c2)OCO3)cc1OC [f8, 2-[5-(1,3-benzodioxol-5-yl)-1H-tetrazol-1-yl]-N′-[(3,4-dimethoxyphenyl)methylidene]acetohydrazide] | 200 to 202 °C | excellent anti-proliferative activity | increased more than two fold | increased | a minimum of two folds decrease | anti-proliferative activity / inhibitory effects ([1]; FIG. 2, listed as 8): detectable; anti-proliferative effects in MDA-MB-231 (MDA-MB-231 cell line): more anti-proliferative effects; anti-proliferative effects in ZR-75 (ZR-75 cell line): more anti-proliferative effects; expression of CD44 ([2]; FIG. 3, listed as 8): increased about two fold; expression of BRAC-1 ([3]; FIG. 4, listed as 8): highly suppressed
O=C(Cn1nnnc1-c1ccc2c(c1)OCO2)NN=Cc1ccc(Cl)cc1 [f1, 2-[5-(1,3-benzodioxol-5-yl)-1H-tetrazol-1-yl]-N′-[4-chlorophenyl-methylidene]acetohydrazide] | 206 to 208 °C |  |  |  |  | 
Cc1ccc(C=NNC(=O)Cn2nnnc2-c2ccc3c(c2)OCO3)cc1 [f6, 2-[5-(1,3-benzodioxol-5-yl)-1H-tetrazol-1-yl]-N′-[(4-methylphenyl)methylidene]acetohydrazide] | 203 to 205 °C |  |  |  |  | 
CCOc1ccc(C=NNC(=O)Cn2nnnc2-c2ccc3c(c2)OCO3)cc1 [f3, 2-[5-(1,3-benzodioxol-5-yl)-1H-tetrazol-1-yl]-N′-[(4-ethoxyphenyl)methylidene]acetohydrazide] | 208 to 210 °C |  |  |  |  | 
O=C(Cn1nnnc1-c1ccc2c(c1)OCO2)NN=Cc1ccccc1[N+](=O)[O-] [f10, 2-[5-(1,3-benzodioxol-5-yl)-1H-tetrazol-1yl]-N′-[(2-nitrophenyl)methylidene]acetohydrazide] | 210 to 212 °C | excellent anti-proliferative activity | increased more than two fold | increased | a minimum of two folds decrease | anti-proliferative activity / inhibitory effects ([1]; FIG. 2, listed as 10): detectable; anti-proliferative effects on MCF-7 cells growth (MCF-7 cells): more anti-proliferative effects; expression of CD44 ([2]; FIG. 3, listed as 10): increased about two fold

Now from value to molecule, other results behind:

melting point | Structure (SMILES) | anti-proliferative activity / inhibitory effects ([1]; FIG. 2) | expression of BAX ([2]; FIG. 3) | expression of CD44 ([2]; FIG. 3) | expression of BRAC-1 ([3]; FIG. 4) | further results
196 to 198 °C | CCOc1ccccc1C=NNC(=O)Cn1nnnc1-c1ccc2c(c1)OCO2 [f7, 2-[5-(1,3-benzodioxol-5-yl)-1H-tetrazol-1-yl]-N′-[(2-ethoxyphenyl)methylidene]acetohydrazide] |  |  |  |  | 
208 to 210 °C | O=C(Cn1nnnc1-c1ccc2c(c1)OCO2)NN=Cc1cccc([N+](=O)[O-])c1 [f12, 2-[5-(1,3-benzodioxol-5-yl)-1H-tetrazol-1yl]-N′-[(3-nitrophenyl)methylidene]acetohydrazide] | excellent anti-proliferative activity | increased more than two fold | increased | a minimum of two folds decrease | anti-proliferative activity / inhibitory effects ([1]; FIG. 2, listed as 12): detectable; anti-proliferative effects on MCF-7 cells growth (MCF-7 cells): more anti-proliferative effects
198 to 200 °C | O=C(Cn1nnnc1-c1ccc2c(c1)OCO2)NN=Cc1ccccc1Cl [f2, 2-[5-(1,3-benzodioxol-5-yl)-1H-tetrazol-1-yl]-N′-[(2-chlorophenyl)methylidene]acetohydrazide] | excellent anti-proliferative activity | increased more than two fold | increased | a minimum of two folds decrease | anti-proliferative activity / inhibitory effects ([1]; FIG. 2, listed as 2): detectable
212 to 214 °C | O=C(Cn1nnnc1-c1ccc2c(c1)OCO2)NN=Cc1ccco1 [f13, 2-[5-(1,3-benzodioxol-5-yl)-1H-tetrazol-1-yl]-N′-[furan-2-ylmethylidene]acetohydrazide] |  |  |  |  | 
198 to 200 °C | COc1ccc(C=NNC(=O)Cn2nnnc2-c2ccc3c(c2)OCO3)cc1 [f4, 2-[5-(1,3-benzodioxol-5-yl)-1H-tetrazol-1-yl]-N′-[(4-methoxyphenyl)methylidene]acetohydrazide] |  |  |  |  | 
204 to 206 °C | O=C(Cn1nnnc1-c1ccc2c(c1)OCO2)NN=Cc1ccccc1 [f5, 2-[5-(1,3-benzodioxol-5-yl)-1H-tetrazol-1yl]-N′-[phenylmethylidene]acetohydrazide] |  |  |  |  | 
